The record followed here is ChEMBL document CHEMBL1122063, “Renin inhibitors. Substitution of the leucyl residues of Leu-Leu-Val-Phe-OCH3 with 3-amino-2-hydroxy-5-methylhexanoic acid” (J Med Chem, 1982).

For orientation: Ki means the equilibrium dissociation constant of an inhibitor or competing ligand from its target. Read a low Ki as tighter binding.

The assay addresses T1, Renin (Homo sapiens, UniProt P00797).
T1 sequence (P00797 whole entry): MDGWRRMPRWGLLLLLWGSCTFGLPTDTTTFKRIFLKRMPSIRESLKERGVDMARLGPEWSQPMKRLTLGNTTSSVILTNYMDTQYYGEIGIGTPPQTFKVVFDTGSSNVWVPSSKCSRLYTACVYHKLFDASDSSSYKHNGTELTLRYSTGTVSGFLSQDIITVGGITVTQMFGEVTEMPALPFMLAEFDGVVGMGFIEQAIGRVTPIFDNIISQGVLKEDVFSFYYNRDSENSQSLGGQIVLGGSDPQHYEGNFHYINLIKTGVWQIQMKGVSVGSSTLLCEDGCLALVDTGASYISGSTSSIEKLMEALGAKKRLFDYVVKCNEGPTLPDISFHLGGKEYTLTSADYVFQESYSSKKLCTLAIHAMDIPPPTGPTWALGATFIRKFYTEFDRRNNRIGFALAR
Kind of assay: Competitive inhibition of renin from human amniotic […].

`COC(=O)[C@H](Cc1ccccc1)NC(=O)[C@@H](NC(=O)[C@@H](CC(C)C)NC(=O)[C@H](O)[C@@H](N)CC(C)C)C(C)C`: the affinity, expressed as Ki, was 1520 µM.
In the case of `COC(=O)[C@H](Cc1ccccc1)NC(=O)[C@@H](NC(=O)[C@H](CC(C)C)NC(=O)[C@@H](O)[C@@H](N)CC(C)C)C(C)C`, the inhibitory constant (Ki) is 960 µM.
The value for `COC(=O)[C@H](Cc1ccccc1)NC(=O)[C@@H](NC(=O)[C@H](O)[C@@H](N)CC(C)C)C(C)C` was 1010 µM; that for `COC(=O)[C@H](Cc1ccccc1)NC(=O)[C@@H](NC(=O)[C@@H](O)[C@@H](N)CC(C)C)C(C)C` was 2440 µM.
The value for `COC(=O)[C@H](Cc1ccccc1)NC(=O)[C@@H](NC(=O)[C@@H](O)[C@@H](N)CC(C)CC(=O)[C@@H](N)CC(C)C)C(C)C` (stereo partly specified) was 520 µM; that for `COC(=O)[C@H](Cc1ccccc1)NC(=O)[C@@H](NC(=O)[C@H](O)[C@@H](N)CC(C)CC(=O)[C@@H](N)CC(C)C)C(C)C` (stereo partly specified) was 440 µM.
